From US20240269139A1, “COMPOUNDS FOR TARGETED PROTEIN DEGRADATION OF KINASES” (DANA-FARBER CANCER INSTITUTE, INC., priority 2020, published 2024)
Like-named read-outs stand apart in the source and are kept apart here.

How the values were obtained:
Type in all cases: cell-based
[1] = biological target: protein kinases (human kinome) (Homo sapiens, UniProt P11802)
Source text: (§1) Although development of targeted protein degraders requires a POI binder, among already-liganded proteins such as kinases, it was hypothesized that different targets would have a different propensity for current approaches to degrader-mediated destruction, which was termed ‘degradability’. […] It was rationalized that the probability of identifying the same kinase as a false positive in multiple treatments is low, therefore this analysis served to also assess the robustness of our data and subsequent interpretations. […] Overall, 62 protein kinases were degraded in more than 10 independent treatments, and remarkably, 9 of these (CDK4, AURKA, FER, WEE1, BLK. LIMK2, CDK6, GAK, LIMK1) were each degraded in at least 40 of the 154 independent treatments, emphasizing their predisposition to induced degradation (FIG. 1G; Appendix I).
(§2) Next, the frequency of degradation assessment was corrected for over-representation of molecules in the full dataset by omitting replicate profiling of compounds under different experimental conditions, to remove any bias. […] Unsurprisingly, the top degradable kinases mirror those from the previous analysis (CDK4, AURKA, FER, WEE1, BLK), confirming that in sufficiently large datasets, even with over-representation of certain molecules, frequency of degradation is a good measure of general tractability.

[2] = biological target: protein kinases (human kinome) (Homo sapiens, UniProt P30291); details: for logFC of WEE1: WEE1 P30291-1
protein kinases (human kinome) (Homo sapiens, UniProt P30291), sequence (P30291 whole entry): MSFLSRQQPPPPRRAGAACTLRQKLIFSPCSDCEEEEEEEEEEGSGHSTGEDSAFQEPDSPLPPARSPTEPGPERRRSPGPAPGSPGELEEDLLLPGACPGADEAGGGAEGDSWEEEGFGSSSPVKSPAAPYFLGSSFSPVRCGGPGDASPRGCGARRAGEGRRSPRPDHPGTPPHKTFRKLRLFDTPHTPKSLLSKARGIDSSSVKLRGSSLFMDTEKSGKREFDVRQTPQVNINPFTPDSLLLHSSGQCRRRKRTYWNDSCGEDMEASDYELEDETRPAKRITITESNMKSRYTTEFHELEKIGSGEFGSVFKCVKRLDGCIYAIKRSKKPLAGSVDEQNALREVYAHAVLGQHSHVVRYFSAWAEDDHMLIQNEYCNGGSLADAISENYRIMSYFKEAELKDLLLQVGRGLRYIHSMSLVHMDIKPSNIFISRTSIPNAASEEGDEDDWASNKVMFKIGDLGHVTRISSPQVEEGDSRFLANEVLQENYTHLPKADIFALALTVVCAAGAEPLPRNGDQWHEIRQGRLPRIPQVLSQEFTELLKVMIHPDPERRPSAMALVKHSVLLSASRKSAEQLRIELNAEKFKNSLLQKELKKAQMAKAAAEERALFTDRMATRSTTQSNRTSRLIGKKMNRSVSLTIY
Source text: as §1, §2

[3] = tested on: protein kinases (human kinome); details: for kinases the bifunctional compound degrades: as stated for the structure in the embodiments; for Kinase hits: kinases significantly downregulated vs DMSO (fold change cutoff −1.25, P-value<0.01), ≤8 h, 0.1-5 μM degrader, 7 cell lines; for Total no. kinase hits: number of degraded kinases per library compound
Source text: as §1, §2

[4] = biological target: protein kinases (human kinome) (Homo sapiens, UniProt Q00537)
protein kinases (human kinome) (Homo sapiens, UniProt Q00537), sequence (Q00537 whole entry): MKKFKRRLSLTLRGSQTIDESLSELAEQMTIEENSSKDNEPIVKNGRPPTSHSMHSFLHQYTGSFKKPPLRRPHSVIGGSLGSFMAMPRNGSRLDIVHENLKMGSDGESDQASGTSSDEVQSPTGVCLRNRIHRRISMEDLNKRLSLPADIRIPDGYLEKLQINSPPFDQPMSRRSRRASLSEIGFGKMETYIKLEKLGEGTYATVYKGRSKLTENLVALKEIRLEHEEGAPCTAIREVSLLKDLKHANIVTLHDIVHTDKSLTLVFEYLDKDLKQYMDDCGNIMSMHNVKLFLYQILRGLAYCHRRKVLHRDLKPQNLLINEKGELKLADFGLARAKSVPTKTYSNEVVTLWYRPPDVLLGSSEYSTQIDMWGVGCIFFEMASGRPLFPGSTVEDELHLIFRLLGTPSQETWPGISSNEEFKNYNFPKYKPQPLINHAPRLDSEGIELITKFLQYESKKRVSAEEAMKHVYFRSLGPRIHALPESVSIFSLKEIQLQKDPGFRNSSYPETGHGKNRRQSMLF
Source text: as §1, §2

[5] = biological target: protein kinases (human kinome) (Homo sapiens, UniProt P53667); details: LIMK1 (P53667-1), experiment wp056
protein kinases (human kinome) (Homo sapiens, UniProt P53667), sequence (P53667 whole entry): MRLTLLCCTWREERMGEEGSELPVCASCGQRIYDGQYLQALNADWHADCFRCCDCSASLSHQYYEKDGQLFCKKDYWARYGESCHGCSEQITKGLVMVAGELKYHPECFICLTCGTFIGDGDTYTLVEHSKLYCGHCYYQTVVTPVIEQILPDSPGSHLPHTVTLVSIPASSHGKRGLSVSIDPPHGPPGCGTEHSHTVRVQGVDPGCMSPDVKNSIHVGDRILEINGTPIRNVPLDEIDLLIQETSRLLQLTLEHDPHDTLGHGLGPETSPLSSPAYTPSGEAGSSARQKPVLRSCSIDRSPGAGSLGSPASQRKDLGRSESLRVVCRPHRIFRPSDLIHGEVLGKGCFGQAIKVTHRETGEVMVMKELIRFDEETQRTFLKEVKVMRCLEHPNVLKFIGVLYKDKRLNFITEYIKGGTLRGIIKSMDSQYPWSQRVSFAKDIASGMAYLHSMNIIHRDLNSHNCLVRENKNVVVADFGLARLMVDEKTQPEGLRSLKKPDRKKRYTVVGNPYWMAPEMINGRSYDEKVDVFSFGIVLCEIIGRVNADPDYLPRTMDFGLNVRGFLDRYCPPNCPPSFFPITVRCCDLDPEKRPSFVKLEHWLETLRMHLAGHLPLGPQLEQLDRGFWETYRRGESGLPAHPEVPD
Source text: as §1, §2

[6] = biological target: protein kinases (human kinome) (Homo sapiens, UniProt P53671); details: experiment wp056
protein kinases (human kinome) (Homo sapiens, UniProt P53671), sequence (P53671 whole entry): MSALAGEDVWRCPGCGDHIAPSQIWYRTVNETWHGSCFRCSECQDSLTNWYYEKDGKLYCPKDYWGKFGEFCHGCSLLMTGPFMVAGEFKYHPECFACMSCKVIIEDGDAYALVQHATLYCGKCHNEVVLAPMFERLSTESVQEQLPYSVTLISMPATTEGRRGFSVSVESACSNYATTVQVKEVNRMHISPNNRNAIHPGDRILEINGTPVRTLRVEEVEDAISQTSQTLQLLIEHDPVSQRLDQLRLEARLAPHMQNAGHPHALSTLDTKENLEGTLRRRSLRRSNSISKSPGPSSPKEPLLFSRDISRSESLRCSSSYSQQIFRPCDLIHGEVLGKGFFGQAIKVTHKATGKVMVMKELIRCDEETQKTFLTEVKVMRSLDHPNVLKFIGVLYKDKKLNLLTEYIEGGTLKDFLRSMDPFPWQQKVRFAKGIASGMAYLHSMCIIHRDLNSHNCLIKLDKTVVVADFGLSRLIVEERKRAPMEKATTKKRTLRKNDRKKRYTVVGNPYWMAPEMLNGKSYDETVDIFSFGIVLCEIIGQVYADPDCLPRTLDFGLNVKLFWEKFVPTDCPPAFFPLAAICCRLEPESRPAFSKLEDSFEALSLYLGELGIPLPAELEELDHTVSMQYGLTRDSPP
Source text: as §1, §2

[7] = biological target: T1, protein kinases (human kinome) (Homo sapiens, UniProt O14976)
T1 sequence (O14976 1-1311): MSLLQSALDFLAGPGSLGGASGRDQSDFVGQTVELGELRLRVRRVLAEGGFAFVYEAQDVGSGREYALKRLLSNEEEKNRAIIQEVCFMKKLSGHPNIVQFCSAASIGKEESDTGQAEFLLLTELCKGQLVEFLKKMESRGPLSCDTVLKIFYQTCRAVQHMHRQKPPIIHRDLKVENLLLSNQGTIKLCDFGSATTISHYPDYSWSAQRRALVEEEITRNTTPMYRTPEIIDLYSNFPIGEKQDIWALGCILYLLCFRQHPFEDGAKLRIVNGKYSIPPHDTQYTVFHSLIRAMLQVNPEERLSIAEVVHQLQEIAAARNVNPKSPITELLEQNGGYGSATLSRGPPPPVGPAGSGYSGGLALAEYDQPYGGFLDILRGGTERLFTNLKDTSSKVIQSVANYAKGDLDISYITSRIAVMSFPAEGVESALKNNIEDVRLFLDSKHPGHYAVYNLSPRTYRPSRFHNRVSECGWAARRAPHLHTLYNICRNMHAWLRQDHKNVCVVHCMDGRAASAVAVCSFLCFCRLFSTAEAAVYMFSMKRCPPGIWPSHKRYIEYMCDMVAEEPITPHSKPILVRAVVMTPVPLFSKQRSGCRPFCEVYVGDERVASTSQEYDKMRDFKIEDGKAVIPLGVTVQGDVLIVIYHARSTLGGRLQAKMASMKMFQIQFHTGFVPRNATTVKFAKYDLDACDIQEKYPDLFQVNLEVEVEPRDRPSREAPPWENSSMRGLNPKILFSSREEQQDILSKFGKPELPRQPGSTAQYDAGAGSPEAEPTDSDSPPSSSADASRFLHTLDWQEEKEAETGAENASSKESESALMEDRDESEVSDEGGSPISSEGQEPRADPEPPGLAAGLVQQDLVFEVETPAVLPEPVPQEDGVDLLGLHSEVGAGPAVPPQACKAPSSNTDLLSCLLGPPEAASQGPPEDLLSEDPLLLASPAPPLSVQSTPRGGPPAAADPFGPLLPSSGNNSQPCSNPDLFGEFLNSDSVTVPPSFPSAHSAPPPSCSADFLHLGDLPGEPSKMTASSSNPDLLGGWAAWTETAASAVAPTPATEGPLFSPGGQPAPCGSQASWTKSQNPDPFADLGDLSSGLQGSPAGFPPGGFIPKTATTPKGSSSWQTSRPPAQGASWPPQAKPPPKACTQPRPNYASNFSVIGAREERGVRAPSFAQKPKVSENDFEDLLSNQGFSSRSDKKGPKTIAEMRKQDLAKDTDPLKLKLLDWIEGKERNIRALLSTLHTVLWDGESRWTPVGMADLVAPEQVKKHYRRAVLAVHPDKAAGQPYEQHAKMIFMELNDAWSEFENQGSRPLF
Source text: as §1, §2

[8] = biological target: protein kinases (human kinome) (Homo sapiens, UniProt Q2M2I8); details: experiment wp088
protein kinases (human kinome) (Homo sapiens, UniProt Q2M2I8), sequence (Q2M2I8 whole entry): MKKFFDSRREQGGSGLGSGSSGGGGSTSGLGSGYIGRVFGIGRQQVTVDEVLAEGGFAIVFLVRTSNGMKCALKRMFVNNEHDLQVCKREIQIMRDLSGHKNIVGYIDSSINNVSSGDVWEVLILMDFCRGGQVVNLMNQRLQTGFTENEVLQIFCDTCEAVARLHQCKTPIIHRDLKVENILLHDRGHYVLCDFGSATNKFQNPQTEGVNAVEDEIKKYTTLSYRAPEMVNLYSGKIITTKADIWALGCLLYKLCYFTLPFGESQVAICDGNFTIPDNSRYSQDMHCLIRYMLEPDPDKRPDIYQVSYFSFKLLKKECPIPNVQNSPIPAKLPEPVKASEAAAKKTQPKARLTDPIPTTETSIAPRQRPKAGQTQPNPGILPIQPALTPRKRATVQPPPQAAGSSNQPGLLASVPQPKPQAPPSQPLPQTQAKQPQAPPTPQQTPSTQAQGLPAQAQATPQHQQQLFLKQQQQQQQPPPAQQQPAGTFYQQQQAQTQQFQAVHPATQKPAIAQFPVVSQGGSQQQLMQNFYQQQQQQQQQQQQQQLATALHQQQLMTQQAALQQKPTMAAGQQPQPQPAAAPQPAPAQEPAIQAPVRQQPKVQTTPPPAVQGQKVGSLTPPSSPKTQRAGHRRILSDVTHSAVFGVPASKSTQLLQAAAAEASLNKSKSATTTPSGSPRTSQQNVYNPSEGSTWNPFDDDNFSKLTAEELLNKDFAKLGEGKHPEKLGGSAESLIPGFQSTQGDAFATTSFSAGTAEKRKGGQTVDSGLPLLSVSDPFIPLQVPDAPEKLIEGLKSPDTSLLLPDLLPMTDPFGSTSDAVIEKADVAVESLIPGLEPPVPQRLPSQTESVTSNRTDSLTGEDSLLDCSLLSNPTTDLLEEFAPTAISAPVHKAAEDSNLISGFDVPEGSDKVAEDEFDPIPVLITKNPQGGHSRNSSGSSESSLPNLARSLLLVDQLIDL
Source text: as §1, §2

[9] = biological target: protein kinases (human kinome) (Homo sapiens, UniProt P16591)
protein kinases (human kinome) (Homo sapiens, UniProt P16591), sequence (P16591 whole entry): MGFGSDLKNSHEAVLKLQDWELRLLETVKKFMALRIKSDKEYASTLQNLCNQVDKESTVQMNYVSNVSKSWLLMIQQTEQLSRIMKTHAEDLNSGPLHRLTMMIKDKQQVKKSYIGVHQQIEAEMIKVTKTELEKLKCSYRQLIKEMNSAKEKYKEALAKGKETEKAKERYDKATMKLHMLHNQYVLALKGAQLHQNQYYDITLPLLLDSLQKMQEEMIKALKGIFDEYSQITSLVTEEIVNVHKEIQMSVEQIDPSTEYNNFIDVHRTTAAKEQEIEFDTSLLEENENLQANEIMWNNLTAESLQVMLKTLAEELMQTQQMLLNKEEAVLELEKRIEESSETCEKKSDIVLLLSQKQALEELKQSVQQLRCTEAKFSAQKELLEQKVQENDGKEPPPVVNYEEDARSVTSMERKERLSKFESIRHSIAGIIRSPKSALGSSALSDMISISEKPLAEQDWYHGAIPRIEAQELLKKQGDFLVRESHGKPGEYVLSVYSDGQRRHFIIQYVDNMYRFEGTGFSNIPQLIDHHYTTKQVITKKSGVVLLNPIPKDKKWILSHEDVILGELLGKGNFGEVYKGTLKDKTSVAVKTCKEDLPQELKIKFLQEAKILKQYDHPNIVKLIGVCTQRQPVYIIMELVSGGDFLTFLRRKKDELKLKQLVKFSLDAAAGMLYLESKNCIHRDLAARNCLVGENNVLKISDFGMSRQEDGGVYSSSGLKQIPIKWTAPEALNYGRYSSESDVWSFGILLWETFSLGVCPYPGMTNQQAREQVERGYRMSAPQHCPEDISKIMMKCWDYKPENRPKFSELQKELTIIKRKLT
Source text: as §1, §2

protein kinases (human kinome) (Homo sapiens, UniProt P11802), sequence (P11802 whole entry): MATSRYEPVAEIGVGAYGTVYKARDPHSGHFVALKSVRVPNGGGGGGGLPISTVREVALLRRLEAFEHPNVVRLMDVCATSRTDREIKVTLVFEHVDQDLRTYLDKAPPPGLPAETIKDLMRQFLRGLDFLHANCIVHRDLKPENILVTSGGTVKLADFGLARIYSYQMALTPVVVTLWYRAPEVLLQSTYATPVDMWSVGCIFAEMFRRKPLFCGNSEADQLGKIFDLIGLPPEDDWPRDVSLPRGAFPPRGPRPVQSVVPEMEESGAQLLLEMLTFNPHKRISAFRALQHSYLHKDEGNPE

Structure (SMILES): CC(=O)c1c(C)c2cnc(Nc3ccc(N4CCN(CCCCNC(=O)CNc5cccc6c5C(=O)N(C5CCC(=O)NC5=O)C6=O)CC4)cn3)nc2n(C2CCCC2)c1=O (stereo not shown) [BSJ.01.147]
- logFC CDK4 (P11802) ([1]; experiment wp005): −1.415
- logFC CDK4 (P11802) ([1]; experiment wp084): −1.8
- logFC of WEE1 ([2]; experiment wp084): −0.5617
- logFC WEE1 (P30291-1) ([2]; experiment wp005): −0.447
- logFC WEE1 (P30291-1) ([2]; experiment wp084): −0.5617

Structure (SMILES): CC(C)(C)c1nc(-c2cccc(NS(=O)(=O)c3c(F)cccc3F)c2F)c(-c2ccnc(NCCOCCNC(=O)CCOCCOCCNc3cccc4c3C(=O)N(C3CCC(=O)NC3=O)C4=O)n2)s1 (stereo not shown) [DD-03-106, N-(2-(2-((4-(2-(tert-butyl)-4-(3-((2,6-difluorophenyl)sulfonamido)-2-fluorophenyl)thiazol-5-yl)pyrimidin-2-yl)amino)ethoxy)ethyl)-3-(2-(2-((2-(2,6-dioxopiperidin-3-yl)-1,3-dioxoisoindolin-4-yl)amino)ethoxy)ethoxy)propenamide]
- kinases the bifunctional compound degrades [3]: AURKA, BCKDK, CDK1, CDK16, CDK17, CDK2, CDK3, CDK4, CDK6, COQ8A, COQ8B, CSK, EIF2AK2, LIMK1, LIMK2, MAP3K20, NLK, PLK1, PDK1, PDK2, and TESK2
- Kinase hits [3]: AURKA, BCKDK, CDK1, CDK16, CDK17, CDK2, CDK3, CDK4, CDK6, COQ8A, COQ8B, CSK, EIF2AK2, LIMK1, LIMK2, MAP3K20, NLK, PLK1, PDK1, PDK2, TESK2
- Total no. kinase hits [3]: 21
- preference for degrading CDK17 [4]: strong preference for degrading CDK17

Structure (SMILES): Cc1ncsc1-c1ccc([C@H](C)NC(=O)[C@@H]2C[C@@H](O)CN2C(=O)[C@@H](NC(=O)CCOCCOCCNc2nccc(-c3sc(C(C)(C)C)nc3-c3cccc(NS(=O)(=O)c4c(F)cccc4F)c3F)n2)C(C)(C)C)cc1 [DD.03.156]
- logFC LIMK1 ([5]; direction down): −1.037
- logFC LIMK1 ([5]; down): −1.037
- logFC of CDK17 ([4]; Accession Q00537, experiment wp056): −1.825
- logFC CDK17 (Q00537) ([4]; experiment wp056, direction of change down): −1.825
- logFC LIMK2 ([6]; LIMK2 (P53671), down): −1.703
- logFC of LIMK2 ([6]; LIMK2 P53671): −1.703

Structure (SMILES): Cc1cnc(Nc2ccc(N3CCN(CCOCCOCCC(=O)N[C@H](C(=O)N4C[C@H](O)C[C@H]4C(=O)N[C@@H](C)c4ccc(-c5scnc5C)cc4)C(C)(C)C)CC3)cc2)nc1Nc1cccc(S(=O)(=O)NC(C)(C)C)c1 [JWG.122]
- logFC of GAK (O14976) ([7]; Experiment wp088, down): −0.3586
- logFC GAK ([7]; GAK (O14976), direction down, experiment wp088): −0.3586
- logFC AAK1 ([8]; AAK1 (Q2M218-1), down): −0.6335
- logFC AAK1 ([8]; AAK1, accession Q2M218-1, direction of change down): −0.6335

Structure (SMILES): CNC(=O)c1ccccc1Nc1cc(Nc2ccc(N3CCN(CCOCCOCCNC(=O)CNc4cccc5c4C(=O)N(C4CCC(=O)NC4=O)C5=O)CC3)cc2OC)ncc1C(F)(F)F (stereo not shown) [MFH.S.103.1]
- logFC of WEE1 ([2]; experiment wp076, degrader vs DMSO): −0.9694

Structure (SMILES): Cc1cc(Nc2ncc(Cl)c(Nc3ccccc3S(=O)(=O)C(C)C)n2)c(OC(C)C)cc1C1CCN(CCOCCOCCNC(=O)CNc2cccc3c2C(=O)N(C2CCC(=O)NC2=O)C3=O)CC1 (stereo not shown) [TI13.112]
- logFC PTK2 ([3]; Accession Q05397-5, experiment wp012, direction down): −0.6217
- logFC RPS6KA1 (Q15418-2) ([3]; RPS6KA1 protein abundance, degrader vs DMSO, experiment wp012): −0.7875
- logFC of FER ([9]; FER P16591-1, experiment wp012): −0.5247

Structure (SMILES): Cc1cc(Nc2ncc(Cl)c(Nc3ccccc3S(=O)(=O)C(C)C)n2)c(OC(C)C)cc1C1CCN(CCOCCOCCNC(=O)CNc2cccc3c2C(=O)N(C2CCC(=O)NC2=O)C3=O)CC1 (stereo not shown) [TL13.112]
- logFC PTK2 (Q05397-5) ([3]; Experiment wp012, direction of change down): −0.6217
- logFC RPS6KA1 ([3]; RPS6KA1 (Q15418-2), experiment wp012): −0.7875
- logFC of FER (P16591-1) ([9]; Experiment wp012, down): −0.5247

Structure (SMILES): NC(=O)c1c(F)cccc1Nc1nc(Nc2ccc(S(=O)(=O)NCCOCCOCCOCCOCCNc3cccc4c3C(=O)N(C3CCC(=O)NC3=O)C4=O)cc2)ncc1Br (stereo not shown) [TMX-02-138]
- Kinase hits [3]: AAKI, AURKA, AURKB, CDK1, CDK12, CDK16, CDK17, CDK2, CDK5, CDK7, CDK9, CLK1, FER, GSK3A, GSK3B, IRAK3, MAPSK11, MAPK8, MAPK9, NUAK1, PRKAA1, PRKAA2, PTK2B, RPS6KA1, RPS6KA3, STK33, STK38, TTK
- Total no. kinase hits [3]: 28

Structure (SMILES): Cc1cc(S(=O)(=O)NCCOCCOCCOCCOCCNc2cccc3c2C(=O)N(C2CCC(=O)NC2=O)C3=O)ccc1Nc1ncc(Br)c(Nc2cccc(F)c2C(N)=O)n1 (stereo not shown) [TMX-02-172]
- Kinase hits [3]: AURKA, AURKB, CDK1, CDK2, CDK5, MAPK8, MAPK9, PTK2, RPS6KA1, RPS6KA3, STK33, TTK
- Total no. kinase hits [3]: 12

Structure (SMILES): Cc1cc(Nc2ncc(Br)c(Nc3cccc(F)c3C(N)=O)n2)ccc1S(=O)(=O)NCCOCCOCCOCCOCCNc1cccc2c1C(=O)N(C1CCC(=O)NC1=O)C2=O (stereo not shown) [TMX-02-174]
- Kinase hits [3]: AAK1, AURKA, AURKB, CDK1, CDK12, CDK16, CDK17, CDK2, CDK5, CDK7, CDK9, CLK1, FER, GSK3A, GSK3B, IRAK3, MAP3K11, MAPK8, MAPK9, NEK1, NEK3, NEK4, NEK9, NUAK1, PRKAA1, PRKAA2, PTK2, PTK2B, RPS6KA1, RPS6KA3, RPS6KA4, STK33, STK35, STK38, TBK1, TEC, TTK, WEE1
- Total no. kinase hits [3]: 37

Structure (SMILES): Nc1ncc(-c2ccc(S(=O)(=O)N(CCCNC(=O)CCOCCOCCOCCOCCOCCNc3cccc4c3C(=O)N(C3CCC(=O)NC3=O)C4=O)C3CC3)cc2F)cc1-c1ccc2c(c1)CCNC2=O (stereo not shown) [WH-9533-153, N-(3-((4-(6-amino-5-(1-oxo-1,2,3,4-tetrahydroisoquinolin-6-yl)pyridin-3-yl)-N-cyclopropyl-3-fluorophenyl)sulfonamido)propyl)-1-((2-(2,6-dioxopiperidin-3-yl)-1,3-dioxoisoindolin-4-yl)amino)-3,6,9,12,15-pentaoxaoctadecan-18-amide]
- Kinase hits [3]: CDK14, CSNK1D, GSK3A, GSK3B, NUAK1, PIM2, STK17B, STK35, STK4
- Total no. kinase hits [3]: 13

Structure (SMILES): CC(=O)c1c(C)c2cnc(Nc3ccc(N4CCN(CC(=O)NCCOCCOCCOCCNc5cccc6c5C(=O)N(C5CCC(=O)NC5=O)C6=O)CC4)cn3)nc2n(C2CCCC2)c1=O (stereo not shown) [YKL-06-102]
- Kinase hits [3]: CDK4, CDK6, WEE1
- Total no. kinase hits [3]: 3

Structure (SMILES): C=CCn1c(=O)c2cnc(Nc3ccc(N4CCN(CCCNc5cccc6c5C(=O)N(C5CCC(=O)NC5=O)C6=O)CC4)cc3)nc2n1-c1cccc(C(C)(C)O)n1 (stereo not shown) [ZNL-02-096]
- Kinase hits [3]: COQ8A, MKNK2, PAK4, PDK1, PDK2, PDK3, PRKCI, TBCK, WEE1
- Total no. kinase hits [3]: 9

Structure (SMILES): CN1c2ccccc2C(=O)Nc2cnc(Nc3ccc(N4CCN(C(=O)CCOCCNc5cccc6c5C(=O)N(C5CCC(=O)NC5=O)C6=O)CC4)cc3)nc21 (stereo not shown) [ZNL-03-127]
- kinases the bifunctional compound degrades [3]: BLK, LIMK1, LIMK2, STK17A, and TNK2
- Kinase hits [3]: BLK LIMK1, LIMK2 STK17A, TNK2
- Total no. kinase hits [3]: 5

Structure (SMILES): Cc1ncsc1-c1ccc([C@H](C)NC(=O)[C@@H]2C[C@@H](O)CN2C(=O)[C@@H](NC(=O)CCOCCOCCOCCN2CCC(C(=O)Nc3ncc(SCc4ncc(C(C)(C)C)o4)s3)CC2)C(C)(C)C)cc1 [ZZ-1-31B]
- Kinase hits [3]: CDK9, CLK1
- Total no. kinase hits [3]: 2
